Where a SMILES comes first, the peptide text is derived from it. Bridges are numbered along the chain shown (N, C = ends). [ ]: non-standard residue; d: D form. The star is where a group is joined. hPhe(3,5-F2-4-CF3) = N[C@@H](CCc1cc(F)c(C(F)(F)F)c(F)c1)C(=O)O; NPrPhe(4-CF3) = CCCN[C@@H](Cc1ccc(C(F)(F)F)cc1)C(=O)O; NMeGly(cPent) = CN[C@H](C(=O)O)C1CCCC1; Nva(3-Et) = CCC(CC)[C@H](N)C(=O)O; NMeD = CN[C@@H](CC(=O)O)C(=O)O; NMeL = CN[C@@H](CC(C)C)C(=O)O; Morpholide = C1CN(*)CCO1; Ac5c = NC1(C(=O)O)CCCC1; Aze = O=C(O)[C@@H]1CCN1; Sar = CNCC(=O)O
What was measured:
[1] = target: GDP-bound NRAS wild-type protein (Homo sapiens, UniProt P01111); assay: Binding to NRAS by surface plasmon resonance (SPR), Single Cycle Kinetics
[2] = target: GDP-bound HRAS wild-type protein (Homo sapiens, UniProt P01112); assay: Binding to HRAS by surface plasmon resonance (SPR), Single Cycle Kinetics
[3] = KD ratio, GDP-bound NRAS wild-type vs GDP-bound KRAS wild-type, SPR
[4] = KD ratio, GDP-bound HRAS wild-type vs GDP-bound KRAS wild-type, SPR

GDP-bound NRAS wild-type protein, sequence (P01111 whole entry): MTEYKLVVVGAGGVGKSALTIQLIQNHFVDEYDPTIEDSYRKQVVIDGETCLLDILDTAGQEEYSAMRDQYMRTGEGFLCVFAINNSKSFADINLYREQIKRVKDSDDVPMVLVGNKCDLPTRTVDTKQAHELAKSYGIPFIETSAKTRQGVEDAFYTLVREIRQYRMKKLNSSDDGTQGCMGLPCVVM
GDP-bound HRAS wild-type protein, sequence (P01112 whole entry): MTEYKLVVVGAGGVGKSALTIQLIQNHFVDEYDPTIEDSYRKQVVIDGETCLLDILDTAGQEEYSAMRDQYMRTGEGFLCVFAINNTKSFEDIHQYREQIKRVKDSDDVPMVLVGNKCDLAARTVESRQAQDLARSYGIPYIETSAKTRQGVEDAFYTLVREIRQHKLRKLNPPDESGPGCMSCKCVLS

CC[C@H](C)[C@@H]1NC(=O)[C@H](COC)N(C)C(=O)C[C@@H](C(=O)N2CCCCC2)N(C)C(=O)[C@H](C2CCCC2)N(C)C(=O)C2(CC(C)(C)C2)NC(=O)[C@@H]2C[C@@H](OC(C)C)CN2C(=O)[C@H](CCc2cc(F)c(C(F)(F)F)c(F)c2)NC(=O)CN(C)C(=O)[C@H](Cc2ccc(C)cc2)N2CC/C=C\C[C@@H](C2=O)N(C)C(=O)CN(C)C1=O [PP2669]
NRAS/KRAS (ratio of KD value with respect to GDP-bound NRAS wild-type protein to KD value with respect to KRAS) ([1]; class symbols): A (a compound having 10 or more and less than 20 is denoted as A) | HRAS/KRAS (ratio of KD value with respect to GDP-bound HRAS wild-type protein to KD value with respect to KRAS) ([2]; class symbols): A (a compound having 10 or more and less than 20 is denoted as A)

CCO[C@@H]1C[C@H]2C(=O)NC3(CCC3)C(=O)N(C)[C@@H](C3CCCC3)C(=O)N(C)[C@H](C(=O)N(C)C)CC(=O)N(C)[C@@H](Cc3ccccc3)C(=O)N[C@@H]([C@@H](C)CC)C(=O)N(C)CC(=O)N(C)[C@H]3CCCCCN(C3=O)[C@@H](Cc3ccc(F)cc3)C(=O)N(C)CC(=O)N[C@@H](CCc3cc(F)c(C(F)(F)F)c(F)c3)C(=O)N2C1 [PP1195]
NRAS/KRAS (ratio of KD value with respect to NRAS to KD value with respect to KRAS) [1, 3]: B (a compound having 3 or more and less than 10 is denoted as B) | HRAS/KRAS (ratio of KD value with respect to HRAS to KD value with respect to KRAS) [2, 4]: B (a compound having 3 or more and less than 10 is denoted as B)

CCO[C@@H]1C[C@H]2C(=O)NC3(CCC3)C(=O)N(C)[C@@H](C3CCCC3)C(=O)N(C)[C@H](C(=O)N(C)CC)CC(=O)N(C)[C@@H](CC3CCC3)C(=O)N[C@@H]([C@@H](C)CC)C(=O)N(C)CC(=O)N(C)[C@H]3C/C=C\CCN(C3=O)[C@@H](Cc3ccc(C(F)(F)F)cc3)C(=O)N(C)CC(=O)N[C@@H](CCc3ccc(C(F)(F)F)c(Cl)c3)C(=O)N2C1 [PP2826]
NRAS/KRAS (ratio of KD value with respect to GDP-bound NRAS wild-type protein to KD value with respect to KRAS) ([1]; class symbols): A (a compound having 10 or more and less than 20 is denoted as A) | HRAS/KRAS (ratio of KD value with respect to GDP-bound HRAS wild-type protein to KD value with respect to KRAS) ([2]; class symbols): A (a compound having 10 or more and less than 20 is denoted as A)

CCCO[C@@H]1C[C@H]2C(=O)NC3(CCC3)C(=O)N(C)[C@@H](C3CCCC3)C(=O)N(C)[C@H](C(=O)N3CCOCC3)CC(=O)N(C)[C@@H](CC(C)C)C(=O)N[C@@H]([C@@H](C)CC)C(=O)N(C)CC(=O)N(C)[C@H]3CCCCN(C3=O)[C@@H](Cc3ccc(C(F)(F)F)cc3)C(=O)N(C)CC(=O)N[C@@H](CCc3cc(F)c(C(F)(F)F)c(F)c3)C(=O)N2C1 [PP1159]
NRAS/KRAS (ratio of KD value with respect to NRAS to KD value with respect to KRAS) [1, 3]: C (A compound having a KD ratio of 0.1 or more and less than 3 is denoted as C) | HRAS/KRAS (ratio of KD value with respect to HRAS to KD value with respect to KRAS) [2, 4]: B (a compound having 3 or more and less than 10 is denoted as B)

C=CCN1CC(=O)N(C)[C@H]2C/C=C\CCN(C2=O)[C@@H](Cc2ccc(C(F)(F)F)cc2)C(=O)N(C)CC(=O)N[C@@H](CCc2ccc(C(F)(F)F)c(OC)c2)C(=O)N2C[C@H](OCC)C[C@H]2C(=O)NC2(CC(C)(C)C2)C(=O)N(C)[C@@H](C2CCCC2)C(=O)N(C)[C@H](C(=O)N(C)C)CC(=O)N(C)[C@@H](CCC)C(=O)N[C@@H]([C@@H](C)CC)C1=O [PP2106]
NRAS/KRAS (ratio of KD value with respect to NRAS to KD value with respect to KRAS) ([1]; SPR, GDP-bound NRAS wild-type vs GDP-bound KRAS wild-type): A (a compound having 10 or more and less than 20 is denoted as A) | HRAS/KRAS (ratio of KD value with respect to HRAS to KD value with respect to KRAS) ([2]; SPR, GDP-bound HRAS wild-type vs GDP-bound KRAS wild-type): A (a compound having 10 or more and less than 20 is denoted as A)

CCC[C@H]1C(=O)N[C@@H]([C@@H](C)CC)C(=O)N(C)CC(=O)N(C)[C@H]2C/C=C\CCN(C2=O)[C@@H](Cc2ccc(C(F)(F)F)cc2)C(=O)N(C)CC(=O)N[C@@H](CCc2cc(F)c(C(F)(F)F)c(F)c2)C(=O)N2CC(F)(F)C[C@H]2C(=O)NC2(CC(C)(C)C2)C(=O)N(C)[C@@H](C2CCCC2)C(=O)N(C)[C@H](C(=O)N(C)C)CC(=O)N1C [PP1711]
NRAS/KRAS (ratio of KD value for NRAS to KD value for KRAS) [1, 3]: A (a compound having 10 or more and less than 20 is denoted as A) | HRAS/KRAS (ratio of KD value for HRAS to KD value for KRAS) [2, 4]: B (a compound having 3 or more and less than 10 is denoted as B)

CCCN1C(=O)CN(C)C(=O)[C@@H]2CCN2C(=O)[C@H](C(CC)CC)NC(=O)[C@H](CC(C)C)N(C)C(=O)C[C@@H](C(=O)N2CCOCC2)N(C)C(=O)[C@H](C2CCCC2)N(C)C(=O)C2(CCCC2)NC(=O)[C@@H]2CCCN2C(=O)[C@H](CCc2cc(F)c(C(F)(F)F)c(F)c2)NC(=O)CN(C)C(=O)[C@@H]1Cc1ccc(C(F)(F)F)cc1 [PP0785] ([NMeL][Nva(3-Et)][Aze][Sar][NPrPhe(4-CF3)][Sar][hPhe(3,5-F2-4-CF3)]P[Ac5c][NMeGly(cPent)][NMeD]-Morpholide; lactam N-11)
NRAS/KRAS (ratio of KD value with respect to GDP-bound NRAS wild-type protein to KD value with respect to KRAS) ([1]; SPR): B (a compound having 3 or more and less than 10 is denoted as B) | HRAS/KRAS (ratio of KD value with respect to GDP-bound HRAS wild-type protein to KD value with respect to KRAS) ([2]; SPR): B (a compound having 3 or more and less than 10 is denoted as B)

Source: patent US20250230193A1, “CYCLIC COMPOUND HAVING SELECTIVE KRAS INHIBITORY EFFECT ON HRAS AND NRAS” (CHUGAI SEIYAKU KABUSHIKI KAISHA, priority 2022, published 2025)
